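Five compound concentrations were applied to cells in 96-well plates for 48 hours; endpoints were derived by simple linear interpolation of the resulting dose-response curve. GI50: concentration for 50% inhibition of growth.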 Active and inactive are the calls of the source. Cut-off read from the data, not from the text of the source: active = GI50 up to about 1.1 µM and inactive = higher.
Experiments:
Assay in all cases: NCI tumour cell line growth inhibition, 48 h
HT-29 = system: HT-29
HCC 2998 = system: HCC 2998
HCT-15 = system: HCT-15
COLO 205 = system: COLO 205
SNB-75 = system: SNB-75
IGROV-1 = system: IGROV-1
NCI-H23 = system: NCI-H23
SW-620 = system: SW-620
OVCAR-5 = system: OVCAR-5
UACC-62 = system: UACC-62
EKVX = system: EKVX
U-251 = system: U-251
UACC-257 = system: UACC-257
SN12C = system: SN12C
UO-31 = system: UO-31
KM12 = system: KM12
K562 = system: K562
SF-268 = system: SF-268
NCI-H226 = system: NCI-H226
MOLT-4 = system: MOLT-4

SMILES | GI50 (HT-29) | GI50 (HCC 2998) | GI50 (HCT-15) | GI50 (COLO 205) | GI50 (SNB-75) | GI50 (IGROV-1) | GI50 (NCI-H23) | GI50 (SW-620) | GI50 (OVCAR-5) | GI50 (UACC-62) | GI50 (EKVX) | GI50 (U-251) | GI50 (UACC-257) | GI50 (SN12C) | GI50 (UO-31) | GI50 (KM12) | GI50 (K562) | GI50 (SF-268) | GI50 (NCI-H226) | GI50 (MOLT-4)
CCCCOC(=O)C1CC[C@H]2[C@@H]3CCc4cc(OC(=O)c5cccc6c(=O)c7ccccc7[nH]c56)ccc4[C@H]3CC[C@]12C (some centres undefined) | 10.4 µM (inactive) | 8.87 µM (inactive) | 6.98 µM | 7.29 µM (inactive) | 10.4 µM (inactive) | 8.13 µM (inactive) | 8.95 µM (inactive) | 12.4 µM (inactive) | 11.3 µM (inactive) | 6.84 µM (inactive) | 2.48 µM (inactive) | 9.79 µM (inactive) | 8.47 µM (inactive) | 8.45 µM (inactive) | 8.17 µM (inactive) | 9.71 µM (inactive) | 9.98 µM (inactive) | 9.44 µM (inactive) | 11.4 µM (inactive) | 8.81 µM (inactive)
CC(C)=CCC(OC(=O)C=C(C)C)c1cc(O)c2c(c1O)C(=O)C=CC2=O (centres undefined) | 1.67 µM (inactive) | 2.4 µM (inactive) | 0.398 µM | 0.382 µM (active) | 4.98 µM (inactive) | 2.04 µM (inactive) | – | 0.267 µM (active) | 3.89 µM (inactive) | 0.783 µM (active) | 0.933 µM (active) | 3.08 µM (inactive) | 0.753 µM (active) | 1.04 µM (active) | 3.3 µM (inactive) | 2.42 µM (inactive) | 0.27 µM (active) | 1.39 µM (inactive) | 2.97 µM (inactive) | –
Cc1oc2c(c1C)S(=O)(=O)C(C#N)=CN2 | > 100 µM (inactive) | > 100 µM (inactive) | > 100 µM | > 100 µM (inactive) | 65.3 µM (inactive) | > 100 µM (inactive) | > 100 µM (inactive) | > 100 µM (inactive) | > 100 µM (inactive) | > 100 µM (inactive) | > 100 µM (inactive) | > 100 µM (inactive) | > 100 µM (inactive) | > 100 µM (inactive) | > 100 µM (inactive) | > 100 µM (inactive) | > 100 µM (inactive) | > 100 µM (inactive) | > 100 µM (inactive) | > 100 µM (inactive)
COc1cccc2c1C(=O)c1c(O)c3c(c(O)c1C2=O)C[C@@](O)(C(C)=O)C[C@@H]3OC1CC(O)C(O)C(C)O1 (some centres undefined) | 1.41 µM (inactive) | 0.918 µM (active) | 1.43 µM | 2.05 µM (inactive) | 1.62 µM (inactive) | 3.05 µM (inactive) | 0.942 µM (active) | 0.536 µM (active) | 1.04 µM (active) | 1.04 µM (active) | 6.67 µM (inactive) | 0.359 µM (active) | 3.79 µM (inactive) | 0.675 µM (active) | 1.66 µM (inactive) | 1.55 µM (inactive) | 0.925 µM (active) | 1.08 µM (active) | 0.289 µM (active) | 0.0208 µM (active)
Cc1ccc(C(=O)Nc2ccc(S(=O)(=O)O)c3cc(S(=O)(=O)O)cc(S(=O)(=O)O)c23)cc1N | > 100 µM (inactive) | > 100 µM (inactive) | > 100 µM | > 100 µM (inactive) | > 100 µM (inactive) | > 100 µM (inactive) | > 100 µM (inactive) | > 100 µM (inactive) | > 100 µM (inactive) | > 100 µM (inactive) | > 100 µM (inactive) | – | > 100 µM (inactive) | > 100 µM (inactive) | > 100 µM (inactive) | > 100 µM (inactive) | > 100 µM (inactive) | > 100 µM (inactive) | > 100 µM (inactive) | > 100 µM (inactive)
CC1=CC[C@H](C)C(C)(C)C1/C=C/C(C)=C/CC[C@@]1(CO)[C@H](CCCO)/C(=C(/C)C=O)CC[C@]1(C)O (some centres undefined) | 2.77 µM (inactive) | 2.31 µM (inactive) | 7.64 µM | 1.05 µM (active) | – | 11.7 µM (inactive) | 10.2 µM (inactive) | 2.01 µM (inactive) | 23.6 µM (inactive) | – | 2.2 µM (inactive) | 2.86 µM (inactive) | 15.2 µM (inactive) | 5.68 µM (inactive) | 8.45 µM (inactive) | 1.61 µM (inactive) | 1.31 µM (inactive) | 7.46 µM (inactive) | 1.9 µM (inactive) | 1.57 µM (inactive)
NC(=O)N/N=C\CC(O)(C(F)(F)Cl)C(F)(F)Cl | > 10 µM (inactive) | > 10 µM (inactive) | > 10 µM | > 10 µM (inactive) | > 10 µM (inactive) | > 10 µM (inactive) | > 10 µM (inactive) | > 10 µM (inactive) | – | > 10 µM (inactive) | > 10 µM (inactive) | > 10 µM (inactive) | > 10 µM (inactive) | > 10 µM (inactive) | > 10 µM (inactive) | > 10 µM (inactive) | > 10 µM (inactive) | > 10 µM (inactive) | > 10 µM (inactive) | > 10 µM (inactive)
O=C(O)C1CCC(=O)N1C(=O)COc1cc(Cl)c(Cl)cc1Cl (centres undefined) | > 100 µM (inactive) | – | > 100 µM | > 100 µM (inactive) | 40.6 µM (inactive) | > 100 µM (inactive) | > 100 µM (inactive) | > 100 µM (inactive) | > 100 µM (inactive) | > 100 µM (inactive) | > 100 µM (inactive) | > 100 µM (inactive) | > 100 µM (inactive) | > 100 µM (inactive) | > 100 µM (inactive) | > 100 µM (inactive) | – | > 100 µM (inactive) | > 100 µM (inactive) | –
CCOC(=O)C(C(=O)OCC)c1cc(-c2cc3ccccc3o2)oc(=O)c1C#N | 18.6 µM (inactive) | 19.5 µM (inactive) | 19.1 µM | 20.5 µM (inactive) | 26.2 µM (inactive) | 24.9 µM (inactive) | 16 µM (inactive) | 23.1 µM (inactive) | 18.5 µM (inactive) | – | 39.7 µM (inactive) | 16.2 µM (inactive) | 25.6 µM (inactive) | 24.4 µM (inactive) | 32.2 µM (inactive) | 35.6 µM (inactive) | 29 µM (inactive) | 34.9 µM (inactive) | 21.1 µM (inactive) | 21.6 µM (inactive)
CCOC(=O)C(OP(=O)(OCC)OCC)C(F)(F)F (centres undefined) | > 100 µM (inactive) | > 100 µM (inactive) | > 100 µM | – | > 100 µM (inactive) | – | > 100 µM (inactive) | – | > 100 µM (inactive) | > 100 µM (inactive) | > 100 µM (inactive) | > 100 µM (inactive) | > 100 µM (inactive) | > 100 µM (inactive) | > 100 µM (inactive) | > 100 µM (inactive) | > 100 µM (inactive) | > 100 µM (inactive) | > 100 µM (inactive) | > 100 µM (inactive)
O=C(c1ccccc1)C1C(c2ccccc2)N1S(=O)(=O)c1ccccc1 (centres undefined) | > 100 µM (inactive) | > 100 µM (inactive) | > 100 µM | > 100 µM (inactive) | > 100 µM (inactive) | > 100 µM (inactive) | > 100 µM (inactive) | > 100 µM (inactive) | > 100 µM (inactive) | > 100 µM (inactive) | > 100 µM (inactive) | > 100 µM (inactive) | – | > 100 µM (inactive) | > 100 µM (inactive) | > 100 µM (inactive) | > 100 µM (inactive) | > 100 µM (inactive) | > 100 µM (inactive) | > 100 µM (inactive)
Clc1ccccc1/C=C/c1cscn1 | > 100 µM (inactive) | > 100 µM (inactive) | > 100 µM | – | > 100 µM (inactive) | – | > 100 µM (inactive) | – | > 100 µM (inactive) | > 100 µM (inactive) | > 100 µM (inactive) | > 100 µM (inactive) | > 100 µM (inactive) | > 100 µM (inactive) | 88.1 µM (inactive) | > 100 µM (inactive) | > 100 µM (inactive) | > 100 µM (inactive) | – | > 100 µM (inactive)
Cc1ccc(NC(=O)S(N)(c2ccc(C)cc2)[N+](=O)[O-])cc1 (centres undefined) | > 100 µM (inactive) | > 100 µM (inactive) | > 100 µM | > 100 µM (inactive) | > 100 µM (inactive) | > 100 µM (inactive) | > 100 µM (inactive) | > 100 µM (inactive) | > 100 µM (inactive) | > 100 µM (inactive) | – | > 100 µM (inactive) | > 100 µM (inactive) | > 100 µM (inactive) | 75 µM (inactive) | > 100 µM (inactive) | 8.87 µM (inactive) | – | > 100 µM (inactive) | 84.7 µM (inactive)
O=c1c(-c2ccccc2)c(SCCN2CCCCCC2)n(-c2ccccc2)c(=S)n1-c1ccccc1 | – | 3.52 µM (inactive) | 51.3 µM | 30.4 µM (inactive) | > 100 µM (inactive) | 45.8 µM (inactive) | 68.9 µM (inactive) | 37.2 µM (inactive) | 21.1 µM (inactive) | 48.9 µM (inactive) | 17.7 µM (inactive) | – | 86.3 µM (inactive) | – | – | 27.3 µM (inactive) | 19.6 µM (inactive) | – | 94.8 µM (inactive) | 13.4 µM (inactive)
C=C[C@@H]1C(CO)=CCC2[C@H]1CCC1C(C)(C)C(=O)CC[C@]21C (some centres undefined) | > 100 µM (inactive) | > 100 µM (inactive) | > 100 µM | > 100 µM (inactive) | – | > 100 µM (inactive) | > 100 µM (inactive) | > 100 µM (inactive) | > 100 µM (inactive) | > 100 µM (inactive) | > 100 µM (inactive) | > 100 µM (inactive) | > 100 µM (inactive) | > 100 µM (inactive) | > 100 µM (inactive) | > 100 µM (inactive) | > 100 µM (inactive) | > 100 µM (inactive) | > 100 µM (inactive) | > 100 µM (inactive)
